Test results reported in patent US9018388B2, “Pesticidal compositions and processes related thereto” (Dow AgroSciences LLC, priority 2012, dated 2015).

What was measured:
Type in all cases: in vivo
[1] = system: Beet Armyworm (BAW) (Spodoptera exigua); assay: Bioassay on beet armyworm (BAW), 128-well diet tray assay; details: Spodoptera exigua; Beet armyworm, 50 μg/cm^2; read-out: % Mortality BAW 50 μg/cm^2
Method in brief: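 Second-instar Spodoptera exigua larvae, one to five per well, on artificial diet treated with 50 μg/cm^2 compound in 90:10 acetone-water and dried, eight wells per compound. Held at 25 °C, 14:10 light-dark for five to seven days; percent mortality averaged over wells.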

[2] = system: Corn Earworm (CEW) (Helicoverpa zea); assay: Bioassay on corn earworm (CEW), 128-well diet tray assay; details: Helicoverpa zea; Corn earworm, 50 μg/cm^2; read-out: % Mortality CEW 50 μg/cm^2
Method in brief: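 Second-instar Helicoverpa zea larvae (one to five per well) placed on artificial diet treated with 50 μg/cm^2 compound in 90:10 acetone-water, dried, eight wells per compound. Held at 25 °C, 14:10 light-dark, five to seven days; percent mortality averaged over wells.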

[3] = system: Green Peach Aphid (GPA) (Myzus persicae); assay: Bioassay on green peach aphid (GPA), foliar spray on cabbage seedlings; details: 72 h, read-out: % Mortality GPA 200 ppm
Experimental: Bioassays on Green Peach Aphid (“GPA”) (Myzus persicae)
Certain molecules disclosed in this document were tested against GPA using procedures described in the following example. In the reporting of the results, the “GPA Rating Table” was used (See Table Section).
Cabbage seedlings grown in 3-inch pots, with 2-3 small (3-5 cm) true leaves, were used as test substrate. The seedlings were infested with 20-50 GPA (wingless adult and nymph stages) one day prior to chemical application. Four pots with individual seedlings were used for each treatment. Test compounds (2 mg) were dissolved in 2 mL of acetone/methanol (1:1) solvent, forming stock solutions of 1000 ppm test compound. The stock solutions were diluted 5× with 0.025% Tween 20 in H2O to obtain the solution at 200 ppm test compound. A hand-held aspirator-type sprayer was used for spraying a solution to both sides of […] leaves until runoff. Reference plants (solvent check) were sprayed with the diluent only containing 20% by volume of acetone/methanol (1:1) solvent. Treated plants were held in a holding room for three days at approximately 25° C. and ambient relative humidity (RH) prior to grading. Evaluation was conducted by counting the number of live aphids per plant under a microscope. Percent Control was measured by using Abbott's correction formula (W. S. Abbott, “A Method of Computing the Effectiveness of an Insecticide” J. Econ. Entomol. 18 (1925), pp. 265-267) as follows. Corrected%Control=100*(X−Y)/X • where • X=No. of live aphids on solvent check plants and • Y=No. of live aphids on treated plants
The results are indicated in the table entitled “Table 5: Biological Results” (See Table Section).

Compound	pest or weed control at 50 µg/cm2, 50 µg/cm2 [1] [%]	pest or weed control at 50 µg/cm2, 50 µg/cm2 [2] [%]	pest or weed control at 200 ppm [3] [%]
Cc1cccc(C)c1/N=C(/N/N=C/c1ccc(-c2ncn(-c3ccc(OC(F)(F)F)cc3)n2)cc1)SCOC(=O)OC(C)C [Compound 24C]	50 to 100	50 to 100	0 to 80
COc1cccc(N2CCS/C2=N\N=C\c2ccc(-c3ncn(-c4ccc(OC(F)(F)F)cc4)n3)cc2)c1 [Compound 147C]	50 to 100	50 to 100	0 to 80
FC(F)(F)Oc1ccc(-n2cnc(-c3ccc(/C=N/N=C4\SCCCN4c4c(Cl)cccc4C(F)(F)F)cc3)n2)cc1 [Compound 190C]	50 to 100	50 to 100	0 to 80
COc1ccccc1N1CCS/C1=N\N=C\c1ccc(-c2ncn(-c3ccc(OC(F)(F)F)cc3)n2)cc1 [Compound 140C]	50 to 100	50 to 100	0 to 80
Cc1cc(C)c(N2CCS/C2=N\N=C\c2ccc(-c3ncn(-c4ccc(OC(F)(F)F)cc4)n3)cc2)c(C)c1 [Compound 139C]	50 to 100	50 to 100	0 to 80
Cc1cccc(C)c1-n1c(-c2nccs2)cs/c1=N\N=C\c1ccc(-c2ncn(-c3ccc(OC(F)(F)F)cc3)n2)cc1 [Compound 75C]	50 to 100	50 to 100	0 to 80
COc1cc(Cl)c(/N=C(/N/N=C/c2ccc(-c3ncn(-c4ccc(OC(F)(F)F)cc4)n3)cc2)SCOC(=O)OC(C)C)c(Cl)c1 [Compound 33C]	50 to 100	50 to 100	0 to 80
Cc1cccc(C)c1-n1c(-c2ccc(C(=O)O)cc2)cs/c1=N\N=C\c1ccc(-c2ncn(-c3ccc(OC(F)(F)F)cc3)n2)cc1 [Compound 77C]	50 to 100	50 to 100	0 to 80
COc1ccc(C)cc1N1CCCS/C1=N\N=C\c1ccc(-c2ncn(-c3ccc(OC(F)(F)F)cc3)n2)cc1 [Compound 204C]	50 to 100	50 to 100	0 to 80
COc1ccc(N2CCCS/C2=N\N=C\c2ccc(-c3ncn(-c4ccc(OC(F)(F)F)cc4)n3)cc2)c(C)c1 [Compound 192C]	50 to 100	50 to 100	0 to 80
COc1cc(C)c(/N=C(/N/N=C/c2ccc(-c3ncn(-c4ccc(OC(F)(F)F)cc4)n3)cc2)SCC(=O)N2CCNCC2)c(C)c1 [Compound 65C]	50 to 100	50 to 100	0 to 80
Cc1cccc(C)c1-n1c(-c2ccc(OC(F)(F)F)cc2)cs/c1=N\N=C\c1ccc(-c2ncn(-c3ccc(OC(F)(F)F)cc3)n2)cc1 [Compound 78C]	50 to 100	50 to 100	0 to 80
CC1S/C(=N\N=C\c2ccc(-c3ncn(-c4ccc(OC(F)(F)F)cc4)n3)cc2)N(c2ccccc2C(C)C)C1=O (stereo not drawn) [Compound 88C]	50 to 100	50 to 100	0 to 80
Cc1ncccc1N1CCCS/C1=N\N=C\c1ccc(-c2ncn(-c3ccc(OC(F)(F)F)cc3)n2)cc1 [Compound 205C]	50 to 100	50 to 100	0 to 80
Cc1cccc(C)c1/N=C(/N/N=C/c1ccc(-c2ncn(-c3ccc(OC(F)(F)F)cc3)n2)cc1)SCOC(=O)CNC(=O)OC(C)(C)C [Compound 30C]	50 to 100	50 to 100	0 to 80
COc1cc(C)c(/N=C(/N/N=C/c2ccc(-c3ncn(-c4ccc(OC(F)(F)F)cc4)n3)cc2)SCOC(=O)C(C)(C)C)c(C)c1 [Compound 40C]	50 to 100	50 to 100	0 to 80
Cc1cccc(C)c1/N=C(/N/N=C/c1ccc(-c2ncn(-c3ccc(OC(F)(F)F)cc3)n2)cc1)SCC(=O)N1CCN(C(=O)OC(C)(C)C)CC1 [Compound 57C]	50 to 100	50 to 100	0 to 80
CCc1ccccc1N1CCS/C1=N\N=C\c1ccc(-c2ncn(-c3ccc(OC(F)(F)F)cc3)n2)cc1 [Compound 133C]	50 to 100	50 to 100	0 to 80
CC(C)c1ccccc1N1CCS/C1=N\N=C\c1ccc(-c2ncn(-c3ccc(OC(F)(F)F)cc3)n2)cc1 [Compound 132C]	50 to 100	50 to 100	0 to 80
Cc1ccccc1N1CCCS/C1=N\N=C\c1ccc(-c2ncn(-c3ccc(OC(F)(F)F)cc3)n2)cc1 [Compound 195C]	50 to 100	50 to 100	0 to 80
CCOc1ccccc1N1CCS/C1=N\N=C\c1ccc(-c2ncn(-c3ccc(OC(F)(F)F)cc3)n2)cc1 [Compound 146C]	50 to 100	50 to 100	0 to 80
COC(=O)c1ccc(CS/C(=N\c2c(C)cccc2C)N/N=C/c2ccc(-c3ncn(-c4ccc(OC(F)(F)F)cc4)n3)cc2)cc1 [Compound 12C]	50 to 100	50 to 100	0 to 80
CC(C)c1ccccc1N1C(=O)CS/C1=N\N=C\c1ccc(-c2ncn(-c3ccc(OC(F)(F)F)cc3)n2)cc1 [Compound 73C]	50 to 100	50 to 100	0 to 80
CC1CS/C(=N\N=C\c2ccc(-c3ncn(-c4ccc(OC(F)(F)F)cc4)n3)cc2)N1c1c(Cl)cccc1Cl (stereo not drawn) [Compound 157C]	50 to 100	50 to 100	0 to 80
CC(C)=Cc1ccccc1N1CCS/C1=N\N=C\c1ccc(-c2ncn(-c3ccc(OC(F)(F)F)cc3)n2)cc1 [Compound 151C]	50 to 100	50 to 100	0 to 80
Fc1cccc(Cl)c1N1CCCS/C1=N\N=C\c1ccc(-c2ncn(-c3ccc(OC(F)(F)F)cc3)n2)cc1 [Compound 188C]	50 to 100	50 to 100	0 to 80
Cc1cccc(C)c1N1CCCS/C1=N\N=C\c1ccc(-c2ncn(-c3ccc(OC(F)(F)F)cc3)n2)cc1 [Compound 182C]	50 to 100	50 to 100	0 to 80
Cc1cccc(C)c1/N=C(/N/N=C/c1ccc(-c2ncn(-c3ccc(OC(F)(F)F)cc3)n2)cc1)SCC(=O)O [Compound 47C]	50 to 100	50 to 100	0 to 80
Cc1cccc(C)c1/N=C(/N/N=C/c1ccc(-c2ncn(-c3ccc(OC(F)(F)F)cc3)n2)cc1)SCc1ccc(S(C)(=O)=O)cc1 [Compound 17C]	50 to 100	50 to 100	0 to 80
